Source: patent US5698574A, “5-membered heteroaryl-oxazolidinones” (Bayer Aktiengesellschaft, priority 1994, dated 1997)
In brackets after ≈: the same amount, converted by molar mass.

What was measured:
Assay in all cases: minimum inhibitory concentration (MIC), series dilution on Iso-Sensitest agar
Type in all cases: cell-based
Klebs. 57 USA = conditions: 37° C., about 20 hours, about 10^4 colony-forming particles per point
Experimental: (§1) The minimum inhibitory concentrations (MIC) were determined by the series dilution method on Iso-Sensitest agar (Oxoid). A series of agar plates which contained concentration of the active compound which decreased by two-fold dilution in each case was prepared for each test substance. The agar plates were inoculated with a Multipoint inoculator (Denley). Overnight cultures of the pathogens which had been diluted beforehand such that each inoculation point contained about 10^4 colony-forming particles were used for the inoculation. The inoculated agar plates were incubated at 37° C. and the germ growth was read off alter about 20 hours. The MIC value (μg/ml) indicates the lowest concentration of active compound at which no growth was detectable with the naked eye.

Staph 133 = conditions: 37° C., about 20 hours, about 10^4 colony-forming particles per point
Experimental: as §1

Staph 25701 = conditions: 37° C., about 20 hours, about 10^4 colony-forming particles per point
Experimental: as §1

Staph 9TV = conditions: 37° C., about 20 hours, about 10^4 colony-forming particles per point
Experimental: as §1

Psdm. Bonn = conditions: 37° C., about 20 hours, about 10^4 colony-forming particles per point
Experimental: as §1

Staph 48N = conditions: 37° C., about 20 hours, about 10^4 colony-forming particles per point
Experimental: as §1

E. coli Neumann = conditions: Escherichia coli, 37° C., about 20 hours, about 10^4 colony-forming particles per point
Experimental: as §1

| MIC (Klebs. 57 USA) | MIC (Staph 133) | MIC (Staph 25701) | MIC (Staph 9TV) | MIC (Psdm. Bonn) | MIC (Staph 48N) | MIC (E. coli Neumann) | Compound |
| --- | --- | --- | --- | --- | --- | --- | --- |
| > 32 µg/mL | 8 µg/mL (≈ 24.1 µM) | 4 µg/mL (≈ 12.1 µM) | 4 µg/mL (≈ 12.1 µM) | > 32 µg/mL | 4 µg/mL (≈ 12.1 µM) | > 32 µg/mL | CC(=O)NC[C@H]1CN(c2ccc(-c3cccc(N)c3)s2)C(=O)O1 [Example 56] |
| > 32 µg/mL | 4 µg/mL (≈ 12 µM) | 2 µg/mL (≈ 5.98 µM) | 1 µg/mL (≈ 2.99 µM) | > 32 µg/mL | 2 µg/mL (≈ 5.98 µM) | > 32 µg/mL | CC(=O)NC[C@H]1CN(c2ccc(-c3ccc(F)cc3)s2)C(=O)O1 [Example 51] |
| > 32 µg/mL | 2 µg/mL (≈ 5.71 µM) | 2 µg/mL (≈ 5.71 µM) | 2 µg/mL (≈ 5.71 µM) | > 32 µg/mL | 2 µg/mL (≈ 5.71 µM) | > 32 µg/mL | CC(=O)NC[C@H]1CN(c2ccc(-c3csc(C=O)c3)s2)C(=O)O1 [Example 41] |
| > 32 µg/mL | 8 µg/mL (≈ 25.1 µM) | 8 µg/mL (≈ 25.1 µM) | 8 µg/mL (≈ 25.1 µM) | > 32 µg/mL | 8 µg/mL (≈ 25.1 µM) | > 32 µg/mL | CC(=O)NC[C@H]1CN(c2cc(Br)cs2)C(=O)O1 [Example 26] |
| > 32 µg/mL | 1 µg/mL (≈ 2.9 µM) | 1 µg/mL (≈ 2.9 µM) | 1 µg/mL (≈ 2.9 µM) | > 32 µg/mL | 1 µg/mL (≈ 2.9 µM) | > 32 µg/mL | CC(=O)NC[C@H]1CN(c2ccc(-c3cccc(C=O)c3)s2)C(=O)O1 [Example 43] |
| > 32 µg/mL | 4 µg/mL (≈ 10.8 µM) | 1 µg/mL (≈ 2.71 µM) | 2 µg/mL (≈ 5.42 µM) | > 32 µg/mL | 2 µg/mL (≈ 5.42 µM) | > 32 µg/mL | CC(=O)NC[C@H]1CN(c2cc3cc(Br)ccc3s2)C(=O)O1 [Example 22] |
| > 32 µg/mL | 4 µg/mL (≈ 11.6 µM) | 2 µg/mL (≈ 5.81 µM) | 1 µg/mL (≈ 2.9 µM) | > 32 µg/mL | 2 µg/mL (≈ 5.81 µM) | > 32 µg/mL | CC(=O)NC[C@H]1CN(c2cc(-c3cccc(C=O)c3)cs2)C(=O)O1 [Example 59] |
| > 32 µg/mL | 2 µg/mL (≈ 5.77 µM) | 2 µg/mL (≈ 5.77 µM) | 2 µg/mL (≈ 5.77 µM) | > 32 µg/mL | 2 µg/mL (≈ 5.77 µM) | > 32 µg/mL | CC(=O)NC[C@H]1CN(c2ccc(-c3ccc(CO)cc3)s2)C(=O)O1 [Example 101, (5S)-3-(2-[5-(4-hydroxymethyl)phenyl]thiophenyl)-5-acetylamino-methyl-oxazolidin-2-one] |
| > 32 µg/mL | 2 µg/mL (≈ 5.81 µM) | 2 µg/mL (≈ 5.81 µM) | 1 µg/mL (≈ 2.9 µM) | > 32 µg/mL | 4 µg/mL (≈ 11.6 µM) | > 32 µg/mL | CC(=O)NC[C@H]1CN(c2ccc(-c3ccccc3C=O)s2)C(=O)O1 [Example 40, (5S)-3-{2[5-(2-Formylphenyl)]thiophenyl}-5-acetylamino-methyl-oxazolidin-2-one] |
| > 32 µg/mL | 8 µg/mL (≈ 23.1 µM) | 8 µg/mL (≈ 23.1 µM) | 8 µg/mL (≈ 23.1 µM) | > 32 µg/mL | 8 µg/mL (≈ 23.1 µM) | > 32 µg/mL | CC(=O)NC[C@H]1CN(c2ccc(-c3cccc(CO)c3)s2)C(=O)O1 [Example 102] |
| > 32 µg/mL | 2 µg/mL (≈ 6.32 µM) | 4 µg/mL (≈ 12.6 µM) | 2 µg/mL (≈ 6.32 µM) | > 32 µg/mL | 4 µg/mL (≈ 12.6 µM) | > 32 µg/mL | CC(=O)NC[C@H]1CN(c2ccc(-c3ccccc3)s2)C(=O)O1 [Example 42] |
| > 32 µg/mL | 16 µg/mL (≈ 46.5 µM) | 8 µg/mL (≈ 23.2 µM) | 8 µg/mL (≈ 23.2 µM) | > 32 µg/mL | 8 µg/mL (≈ 23.2 µM) | > 32 µg/mL | CC(=O)NC[C@H]1CN(c2cc(-c3ccc(C=O)cc3)cs2)C(=O)O1 [Example 60] |
| > 32 µg/mL | 2 µg/mL (≈ 5.58 µM) | 2 µg/mL (≈ 5.58 µM) | 0.5 µg/mL (≈ 1.4 µM) | > 32 µg/mL | 2 µg/mL (≈ 5.58 µM) | > 32 µg/mL | CC(=O)NC[C@H]1CN(c2ccc(-c3ccc(C(C)=O)cc3)s2)C(=O)O1 [Example 46] |
| > 32 µg/mL | 0.25 µg/mL (≈ 0.726 µM) | 0.25 µg/mL (≈ 0.726 µM) | 0.25 µg/mL (≈ 0.726 µM) | > 32 µg/mL | 0.25 µg/mL (≈ 0.726 µM) | > 32 µg/mL | CC(=O)NC[C@H]1CN(c2ccc(-c3ccc(C=O)cc3)s2)C(=O)O1 [Example 44] |
| > 32 µg/mL | 2 µg/mL (≈ 6.05 µM) | 2 µg/mL (≈ 6.05 µM) | 1 µg/mL (≈ 3.03 µM) | > 32 µg/mL | 2 µg/mL (≈ 6.05 µM) | > 32 µg/mL | CC(=O)NC[C@H]1CN(c2ccc(-c3ccc(C)cc3)s2)C(=O)O1 [Example 39, (5S)-3-{2[5-(4-Methylphenyl)]thiophenyl}-5-acetyl-aminomethyl-oxazolidin-2-one] |
